Test results taken from article PMC9995496, “A screen for MeCP2-TBL1 interaction inhibitors using a luminescence-based assay” (Scientific Reports, 2023).
Counter-ions that a name gives are not always drawn. Square brackets hold non-standard residues; d marks the D form. Ends that are not written are not given here. Peptide text beside a SMILES is read from it. * marks the point of attachment. Nva = CCC[C@H](N)C(=O)O; Cbz = O=C(OCc1ccccc1)*

tested on: PRKACA-PRKAR2A interaction (SmBiT-PRKACA / LgBiT-PRKAR2A), protein kinase A; set-up: NanoLuc complementation counter-screen in cell extract, PRKACA with PRKAR2A, loss of luminescence, detects NanoLuc interference; settings: 0.5 h, 20 µM; inhibitor

Molecule | Inh (PKA) [%]
CCOC(=O)c1cncn1[C@H](C)c1ccccc1 [UM0133274:02, Etomidate] | 13.38

same assay, conditions: counter-screen for NanoLuc interference, 0.5 h, 20 µM, inhibitor, Inh (PKA)

Molecule | Inh (PKA) [%]
c1ccc2c(-c3cnn4cc(-c5ccc(N6CCNCC6)cc5)cnc34)ccnc2c1 [UM0141577:01, LDN193189 Hydrochloride] | 9.112
Cc1cccc(-c2[nH]c(C(C)(C)C)nc2-c2ccc3c(c2)OCO3)n1 [UM0142475:01, SB505124] | 12.17
CCCC(CCC)C(=O)O [UM0141598:02, Valproic acid sodium salt (Sodium valproate)] | 0.874
CS(=O)(=O)CCNCc1ccc(-c2ccc3ncnc(Nc4ccc(OCc5cccc(F)c5)c(Cl)c4)c3c2)o1 [UM0130979:02, Lapatinib Ditosylate] | 54.72
O=c1c(O)c(-c2ccc(O)c(O)c2)oc2cc(O)cc(O)c12 [UM0133552:03, Quercetin] | 26.1
CC(C)Cc1ccc([C@@H](C)C(=O)NS(C)(=O)=O)cc1 [UM0141612:02, Reparixin L-lysine salt] | 7.24

same assay, conditions: counter-screen for NanoLuc interference; 0.5 h, 20 µM; inhibitor

Molecule | Inh (PKA) [%]
COc1ccc2[nH]c([S+]([O-])Cc3ncc(C)c(OC)c3C)nc2c1 (centres unmarked) [UM0048901:05, Omeprazole] | -0.07908
CN(C)CCC=C1c2ccccc2CCc2ccccc21 [UM0118081:03, Amitriptyline HCl] | 6.05
CCOC(=O)Nc1cc(-c2ccc(C)c(NS(C)(=O)=O)c2)nn2c(C)nnc12 [UM0141751:01, Bromosporine] | 9.043
CCCCOc1c(C(=O)c2c(F)cc(C)cc2F)c[nH]c2nncc1-2 [UM0142024:01, BMS265246] | 6.004
CC1=C(CSC(=S)N2CCCCC2)C(=O)c2ccccc2C1=O [UM0142824:01, PKM2 inhibitor(compound 3k)] | 18.26
C=CC(=O)Nc1cccc(Nc2nc(Nc3ccc(N4CCN(C(C)=O)CC4)cc3OC)ncc2C(F)(F)F)c1 [UM0141532:01, CO-1686 (AVL-301)] | 17.5
Cc1[nH]c(/C=C2\C(=O)Nc3ccc(S(=O)(=O)N(C)c4cccc(Cl)c4)cc32)c(C)c1C(=O)N1CCN(C)CC1 [UM0127889:02, SU11274] | 71.51
Cc1ccc(S(=O)(=O)Cc2nc(-c3ccc(C(=O)NCc4cccnc4)cc3)oc2C)cc1 [UM0142406:01, STF-118804] | 1.65
Cc1ccccc1C(C(=O)NC1CCCCC1)N(C(=O)Cn1ccnc1C)c1cccc(F)c1 (centres unmarked) [UM0141795:01, AGI-5198] | 4.354
CC(C(=O)O)c1cccc(C(=O)c2ccccc2)c1 (centres unmarked) [UM0142261:01, Ketoprofen] | -0.4888
C/C(=N\NC(=S)N1CCC1)c1ccccn1 [UM0141763:01, NSC 319726] | 3.72
Cc1ccccc1-n1c(Cn2cnc3c(N)ncnc32)nc2cccc(C)c2c1=O [UM0141441:01, IC-87114] | 5.733
CC(C)(C)NCC(O)c1ccc(O)c(CO)c1 (centres unmarked) [UM0142213:01, Salbutamol Sulfate] | -0.5821
C#C[C@]1(O)CC[C@H]2[C@@H]3CCC4=CC(=O)CC[C@@H]4[C@H]3C(=C)C[C@@]21CC [UM0142516:01, Etonogestrel] | 8.15
C[C@H](NC(=O)/C(C#N)=C/c1cccc(Br)n1)c1ccccc1 [UM0141729:01, WP1066] | 28.21
Cc1cc(Nc2ncc(Cl)c(Nc3ccccc3S(=O)(=O)C(C)C)n2)c(OC(C)C)cc1C1CCNCC1 [UM0141993:01, LDK378] | 11.01
CCC[C@@H](C=O)NC(=O)[C@H](CC(C)C)NC(=O)[C@H](CC(C)C)NC(=O)OCc1ccccc1 [UM0141478:01, MG-115] (Cbz-Leu-Leu-[Nva]-aldehyde) | 4.161
O=C(NCc1cccc(O)c1)Nc1nc(-c2ccncc2)cs1 [UM0141621:01, RKI-1447] | -11
COc1ccc(-c2oc3c(CC=C(C)C)c(O[C@@H]4O[C@H](CO)[C@@H](O)[C@H](O)[C@H]4O)cc(O)c3c(=O)c2O[C@@H]2O[C@@H](C)[C@H](O)[C@@H](O)[C@H]2O)cc1 [UM0133190:02, Icariin] | 17.39
CC[C@@]1(O)C(=O)OCc2c1cc1n(c2=O)Cc2cc3c(CN(C)C)c(O)ccc3nc2-1 [UM0142480:01, Topotecan HCl] | 19.17

Molecule | Inh (PKA) [%]
CC(C)SC(=N)N [UM0142772:01, S-Isopropylisothiourea hydrobromide] | 0.4324
NCC(=O)NCC(=O)N[C@@H](Cc1ccc(O)cc1)C(=O)N[C@@H](CCCN=C(N)N)C(=O)O [UM0141375:01, Papain Inhibitor] (H-GGYR-OH) | 1.556
NCc1c[nH]c(=S)n1[C@H]1CCc2c(F)cc(F)cc2C1 [UM0141789:01, Nepicastat (SYN-117) HCl] | 5.542
CCCc1ncc(C[n+]2ccccc2C)c(N)n1 [UM0118750:03, Amprolium HCl] | -0.09679
Oc1cc(Cl)ccc1Oc1ccc(Cl)cc1Cl [UM0133255:02, Triclosan] | 50.68
CN1CCN(c2nc(C3=C(c4c[nH]c5ccccc45)C(=O)NC3=O)c3ccccc3n2)CC1 [UM0142072:01, Sotrastaurin (AEB071)] | 65.03
Cc1nnc(C(=O)NC(C)(C)c2nc(C(=O)NCc3ccc(F)cc3)c(O)c(=O)n2C)o1 [UM0141693:01, Raltegravir (MK-0518)] | 1.324
C[C@@H]1CCO[C@H]2Cn3cc(C(=O)NCc4ccc(F)cc4F)c(=O)c(O)c3C(=O)N12 [UM0141694:01, S/GSK1349572] | 3.965
CCOC(=O)C1=C(C)NC(C)=C(C(=O)OC)C1c1cccc(Cl)c1Cl (centres unmarked) [UM0142246:01, Felodipine] | 92.04
COc1ccc(-c2coc3cc(O)cc(O)c3c2=O)cc1 [UM0133867:02, Biochanin A] | 69.13
Cc1coc2c1C(=O)C(=O)c1c-2ccc2c(C)cccc12 [UM0142857:01, Tanshinone I] | 27.32
O[C@H]1[C@H](O)[C@@H](O)[C@H](O)[C@@H](O)[C@H]1O [UM0142814:01, myo-Inositol] | -0.9273
COCC[n+]1c2c(n(Cc3cnccn3)c1C)C(=O)c1ccccc1C2=O [UM0141767:01, YM155] | 0.9715
O=C1CN2Cc3c(ccc(Cl)c3Cl)N=C2N1 [UM0141804:01, Anagrelide HCl] | 2.161
CC[C@H](CO)Nc1nc(NCc2ccccc2)c2ncn(C(C)C)c2n1 [UM0127958:02, Roscovitine (Seliciclib,CYC202)] | 10.31
COCCCOc1cc(C[C@@H](C[C@H](N)[C@@H](O)C[C@H](C(=O)NCC(C)(C)C(N)=O)C(C)C)C(C)C)ccc1OC [UM0142448:01, Aliskiren Hemifumarate] | 6.646
CC(C)(C(=O)NCC(F)(F)C(F)(F)F)C(=O)N[C@@H]1C(=O)Nc2ccccc2-c2ccccc21 [UM0141660:01, RO4929097] | 10.15
COc1cc(F)c(F)c(Nc2ccc(I)cc2F)c1NS(=O)(=O)C1(C[C@H](O)CO)CC1 [UM0142191:01, Refametinib] | 65.39
CC(C)[C@]12O[C@H]1[C@@H]1O[C@]13[C@]1(O[C@H]1C[C@H]1C4=C(CC[C@@]13C)C(=O)OC4)[C@@H]2O [UM0141641:01, Triptolide] | 1.248
CC(C)C(=O)SCCCCCCC(=O)Nc1nc(-c2ccccc2)cs1 [UM0128574:02, NCH 51] | 3.39

Molecule | Inh (PKA) [%]
CCN1CCN(C(=O)Cc2ccc(Nc3ncc(F)c(Nc4ccc(C(=O)Nc5ccccc5Cl)cc4)n3)cc2)CC1 [UM0141723:01, Aurora A Inhibitor I] | 22.92
CC(=O)O[C@H]1Cc2ccccc2N(C(N)=O)c2ccccc21 [UM0142518:01, Eslicarbazepine acetate] | -0.7534
Cn1cc(/C=C/C(=O)c2cccc(F)c2)cc1/C=C/C(=O)NO [UM0141701:01, MC1568] | 48.72
NC(=O)c1cccc2[nH]c(-c3ccc([C@@H]4CCCN4)cc3F)nc12 [UM0141739:01, A-966492] | 5.639
Nc1nc(Nc2ccc3c(c2)CCC(N2CCCC2)CC3)nn1-c1cc2c(nn1)-c1ccccc1CCC2 (centres unmarked) [UM0141994:01, R428] | 28.03
C[C@@H]1COCCN1c1cc(C2(S(C)(=O)=O)CC2)nc(-c2cccc3[nH]ccc23)n1 [UM0141524:01, AZ20] | 9.96
N#CC(C#N)=Cc1ccc(O)c(O)c1 [UM0120250:03, AG-18] | 48.6
Cn1c(=O)c2nc[nH]c2n(C)c1=O [UM0132766:02, Theophylline] | -0.2913
CC(=O)N1CCN(c2ccc(OC[C@@H]3CO[C@@](Cn4ccnc4)(c4ccc(Cl)cc4Cl)O3)cc2)CC1 (racemic) [UM0118636:05, Ketoconazole] | 5.554
QVPSRPNRAP [UM0141376:01, Dynamin inhibitory peptide] | 1.092
O=C(O)Cc1cccc(OCCCN(Cc2cccc(C(F)(F)F)c2Cl)CC(c2ccccc2)c2ccccc2)c1 [UM0142045:01, GW3965 HCl] | 20.75
CNC(=O)c1c(F)cccc1Nc1nc(Nc2cc3c(ccn3C(=O)CN(C)C)cc2OC)nc2[nH]ccc12 [UM0142043:01, GSK1838705A] | 3.955
COc1ccnc(C[S+]([O-])c2nc3cc(OC(F)F)ccc3[nH]2)c1OC (centres unmarked) [UM0121277:03, Pantoprazole] | -0.2371
CN1CCc2c(c3ccccc3n2Cc2ccc(C(=O)NO)cc2)C1 [UM0142080:01, Tubastatin A HCl] | 2.454
O=C(O)CCc1ccc(NCc2cccc(Oc3ccccc3)c2)cc1 [UM0141410:01, GW9508] | 28.45
CCN1CCN(Cc2ccc(-c3cc4c(N[C@H](C)c5ccccc5)ncnc4[nH]3)cc2)CC1 [UM0141890:01, AEE788 (NVP-AEE788)] | 7.14
Nc1cc(C(F)(F)F)c(-c2cc(N3CCOCC3)nc(N3CCOCC3)n2)cn1 [UM0141503:01, BKM120] | 7.459
CCCCCCCCCCCCc1ccc(S(=O)(=O)Nc2nncs2)cc1 [UM0141916:01, PHT-427] | 11.59
